Experimental findings from patent publication US10309956B2, “Process for assessing risk of substance administration” (priority 2014, dated 2019) are described below.

The structures appear in SMILES notation. Values after ≈ are worked out from the molar mass of the structure shown.

Holding throughout (type): cell-based, human
Test [1] relates to PBMCs. The experiment in a line: Cell death / viability of PBMCs by 7AAD staining (flow cytometry). (In general: A flow cytometer gives signals particle by particle.)
Excerpt: Cell death measured by 7-Aminoactinomycin D (7AAD) staining method is simple and more reliable as 7AAD intercalates into double-stranded nucleic acids and can penetrate cell membranes of dying or dead cells.
The test system of test [2] is T cells. The experiment in a line: Intracellular TNF-α and IFN-γ positive T cells in TPP-treated PBMCs stimulated with poly I:C or LPS (flow cytometry).
Description: Dosing was based on an equi-nicotine exposure paradigm. Cells were washed after 3 h treatment and re-plated in a 48-well plate at 1 million cells/well/mL with and without the presence of 10 μg/mL polyinosinic:polycytidylic acid (poly I:C) or lipopolysaccharide (LPS). After a 67 h incubation, supernatants were taken for secreted cytokine analysis. Cells were plated onto a 96-well plate at 1×10^6/mL and further incubated for 4 h with 200 μL of media with Golgiplug (1 μg/mL) (BD Biosciences, San Jose, Calif.) to measure intracellular cytokines. Cells were then harvested, washed and surface stained for CD56-PE and CD2-FITC, CD69-APC monoclonal antibodies (mAB) for 30 min at 4° C. After washing, cells were fixed and permeabilized with BD Biosciences Cytofix/Cytoperm buffer for 20 min on ice in the dark. Cells were then stained with anti-IFN-γ-PE, anti-TNF-α-APC and anti-perforin-FITC mAB and incubated for an additional 30 min on ice. After washing the cells, they were re-suspended in a total volume of 200 μL of 2% paraformaldehyde for FACS analysis. Forward scatter, side scatter, fluorescence intensity and percent positivity were measured after acquiring 100,000 cells per sample by flow cytometry (BD Biosciences, San Jose, Calif.), and the data were analyzed using Cell Quest (BD Biosciences, San Jose, Calif.) and Flow Jo (Tree Star, Ashland, Oreg.) software.
It was sought to evaluate intracellular cytokine levels in T cells after treating with combustible and non-combustible TPPs. In a first set of experiments, measured was the induction of intracellular TNF-α and IFN-γ by flow cytometry after PBMCs were treated with TPPs and stimulated with either poly I:C or LPS.
It was assessed whether the pretreatment of PBMCs with TPPs compromised their ability to produce TNF-α^+ cells when stimulated with poly I:C and LPS.
Evaluated also were changes in the number of IFN-γ^+ T cells with TPP treatment followed by poly I:C and LPS stimulation.
The subject of test [3] is NK cells. The experiment in a line: TNF-α+ NK cells in poly I:C- and LPS-stimulated PBMCs treated with TPPs.
Description: (§2) Cells were washed after 3 h treatment and re-plated in a 48-well plate at 1 million cells/well/mL with and without the presence of 10 μg/mL polyinosinic:polycytidylic acid (poly I:C) or lipopolysaccharide (LPS). After a 67 h incubation, supernatants were taken for secreted cytokine analysis. Cells were plated onto a 96-well plate at 1×10^6/mL and further incubated for 4 h with 200 μL of media with Golgiplug (1 μg/mL) (BD Biosciences, San Jose, Calif.) to measure intracellular cytokines. Cells were then harvested, washed and surface stained for CD56-PE and CD2-FITC, CD69-APC monoclonal antibodies (mAB) for 30 min at 4° C. After washing, cells were fixed and permeabilized with BD Biosciences Cytofix/Cytoperm buffer for 20 min on ice in the dark. Cells were then stained with anti-IFN-γ-PE, anti-TNF-α-APC and anti-perforin-FITC mAB and incubated for an additional 30 min on ice. After washing the cells, they were re-suspended in a total volume of 200 μL of 2% paraformaldehyde for FACS analysis. Forward scatter, side scatter, fluorescence intensity and percent positivity were measured after acquiring 100,000 cells per sample by flow cytometry (BD Biosciences, San Jose, Calif.), and the data were analyzed using Cell Quest (BD Biosciences, San Jose, Calif.) and Flow Jo (Tree Star, Ashland, Oreg.) software.
Test [4] deals with NK cells. The experiment in a line: CD69 expression in NK cells of TPP-treated PBMCs (flow cytometry). The conditions noted are these: 1650 μg/mL.
Description: Cells were washed after 3 h treatment and re-plated in a 48-well plate at 1 million cells/well/mL with and without the presence of 10 μg/mL polyinosinic:polycytidylic acid (poly I:C) or lipopolysaccharide (LPS). After a 67 h incubation, supernatants were taken for secreted cytokine analysis. Cells were plated onto a 96-well plate at 1×10^6/mL and further incubated for 4 h with 200 μL of media with Golgiplug (1 μg/mL) (BD Biosciences, San Jose, Calif.) to measure intracellular cytokines. Cells were then harvested, washed and surface stained for CD56-PE and CD2-FITC, CD69-APC monoclonal antibodies (mAB) for 30 min at 4° C. After washing, cells were fixed and permeabilized with BD Biosciences Cytofix/Cytoperm buffer for 20 min on ice in the dark. […] Forward scatter, side scatter, fluorescence intensity and percent positivity were measured after acquiring 100,000 cells per sample by flow cytometry (BD Biosciences, San Jose, Calif.), and the data were analyzed using Cell Quest (BD Biosciences, San Jose, Calif.) and Flow Jo (Tree Star, Ashland, Oreg.) software.
CD69 is an early inducible cell surface glycoprotein expressed during lymphoid activation and is involved in NK cell function. PBMCs were treated with TPPs, and CD69 expression on NK cell population was analyzed by flow cytometry after poly I:C and LPS stimulation.
Test [5] has as its system PBMCs. The experiment in a line: Cytolytic assay: killing of CFSE-labeled K562 target cells by TPP-treated PBMCs.
Description: The K562 cell line was used as a target in a cytolytic assay. K562 cells were purchased from ATCC (Manassas Va., USA) and grown in RPMI complete media. One vial of cryopreserved PBMCs was thawed and washed, and a live cell count was taken. Different concentrations of TPPs were prepared in 100 μL media. 1.5×10^6 PBMCs in a 50 μL volume were added to each well and incubated for 1.5 h at 37° C. in 96-well round bottom plates. K562 target cells were labeled with carboxy fluorescein succinimidyl ester (CFSE) and added at a density of 100,000 cells/well (target:effector ratio is 1:15). Cell co-cultures were incubated at 37° C. for an additional 4 h. Immediately after the incubation period, cells were stained with 7AAD (which labels the dead cells) and the killing of CFSE-labeled K562 target cells was evaluated after 7AAD staining by flow cytometric analysis (BD Biosciences, San Jose, Calif.). Flow data were analyzed using Flow Jo software (Tree Star, Ashland, Oreg.).
For test [6], the system named is PBMCs and NK cells. The experiment in a line: Perforin levels in TPP-treated total PBMCs and NK cells. The conditions noted are these: PBMC populations or NK cells.
Description: as §2
Test [7] has as its system PBMCs. The experiment in a line: Secreted cytokines by CBA after 24 h LPS stimulation (modified protocol). As to the method: (§1) Previous methods utilized stimulation with TLR agonists (LPS is for […] and Poly I:C is for TLR3) for 67 h to measure intracellular cytokines and secreted cytokines.
To measure immunomodulatory effects, PBMCs were stimulated with LPS for different time periods and the secreted cytokines were measured by cytometric bead array (CBA) method. To establish LPS stimulation time, PBMCs were exposed to LPS stimulation for 4 h, 24 h, 48 h and 72 h and secreted cytokines were measured.

Test [8] relates to PBMCs. As to the kind of experiment: IL-8 secretion by ELISA after LPS stimulation. The conditions noted are these: 2 mg/mL. The protocol:
Suppression of cytokines was also evident with nicotine. […] Next were measured IL-8 levels in the same samples as above using an ELISA assay.
(ELISA stands for enzyme-linked immunosorbent assay.)

Test [9] has as its system PBMCs. The experiment in a line: Intracellular cytokine-positive cells after 6 h LPS plus Golgiplug (modified protocol). The conditions noted are these: total 6 h. The protocol: as §1

`CN1CCCC1c1cccnc1` (centres unmarked) [nicotine]: the cell death is given as 8% in test [1] (3 h, 2000 μg/mL) and “comparable degree of cell death” in test [1] (24 h, 3,000 μg/mL nicotine, comparable to near 80%). The EC50 in test [1] (Homo sapiens, PBMC, 7AAD positive staining of PBMCs, 24 h assay, neat nicotine, read-out: EC50 (concentration at which 50% of the cells were no longer viable)) is 1650 µg/mL (≈ 10.2 mM). Moreover, the “basal levels of TNF-α+ T cells” value in test [2] (1650 μg/mL, basal (unstimulated)) was “higher basal levels”. Further, the “TNF-α+ T cell numbers” value in [2] (10-1650 μg/mL, poly I:C and LPS stimulation) is “did not yield statistically significant differences”. Also, the “IFN-γ+ T cells (cytokine-positive cells)” value in test [2] (only at the highest concentrations, changes not statistically significant) is on record as “Measurable suppression”. The “changes in TNF-α+ NK cells” value in [3] (higher dose (1650 μg/mL), after LPS stimulation) is “statistically significant reduction”; in test [3] (lower doses (10 and 500 μg/mL)), “did not induce statistically significant changes”. The “basal levels of the induction of CD69 relative to untreated cells” value in test [4] is reported as “did not increase”. Moreover, in [5] (K562 targets, target:effector 1:15), the “target cell killing ability” value is recorded as “did not reduce”. Besides, in [5] (low and high doses), the “cell killing (K562 targets)” value is on record as “did not interfere”. In [6], the “changes in perforin levels” value is listed as “did not result in statistically significant changes”. In addition, in test [7] (LPS stimulation, 24 h), the secreted cytokines entry was “dose-dependent decrease”. Further, the “secreted IL-6” value in [7] (highest concentration (4 mg/mL) tested, LPS 24 h) was “suppressed”. Besides, in test [7] (range of concentrations up to 500 μg/mL of nicotine, LPS 24 h), the “secreted IFN-γ” value is on record as “significantly suppressed”. In addition, the “IL-8 secretion, suppressive effects” value in [8] is recorded as “significant”. Moreover, the “IFN-γ-positive cells, TNF-α-positive cells and MIP-1α-positive cells” value in test [9] is “dose-dependent percent reduction”.
